From the NIST ThermoML archive (doi:10.1016/j.jct.2015.07.020) come the findings set out here.

A short description of data set [1]: refractive index (Na D-line) (dimensionless). The settings on record: 101.33 kPa, Liquid, Standard Abbe refractometry.
For data set [2] the following is noted: 101.33 kPa, Liquid, Vibrating tube method.

Molecules are shown by their SMILES. ± gives the expanded uncertainty stated by the source.

With `O` [water], the refractive index – broadly, the speed of light in vacuum divided by its phase velocity in the sample – in data set [1] (298.15 K) stood at 1.3324 ± 0.0005.
As for `CCc1ccccc1` [ethylbenzene], the refractive index in data set [1] (298.15 K) stood at 1.493 ± 0.0005. Besides, the mass density (commonly the mass of a sample divided by its volume) in data set [2] (298.15 K) is on record as 862.51 ± 0.3 kg/m3.
With `CC(C)c1ccccc1` [isopropylbenzene], the refractive index in data set [1] (293.15 K) is listed as 1.4912 ± 0.0005. The mass density in data set [2] (293.15 K) stood at 863.82 ± 0.3 kg/m3.
